From ChEMBL document CHEMBL5465560, “Selectivity Literature for EUbOPEN Chemogenomic Library” (2024)

Legend:
[1] = molecular target: Atypical kinase COQ8A, mitochondrial (Homo sapiens, UniProt Q8NI60); assay: Selectivity interaction (Competition-binding assay (DiscoverX)) EUB0000229b ADCK3
[2] = molecular target: Calcium/calmodulin-dependent protein kinase type 1 (Homo sapiens) (UniProt Q14012); assay: Selectivity interaction (KinomeScan (DiscoverX)) EUB0000229b CAMK1; details: at 10 µM
[3] = molecular target: Mitogen-activated protein kinase 1 (Homo sapiens, UniProt P28482); assay: Selectivity interaction (KinomeScan (DiscoverX)) EUB0000229b MAPK1; details: at 10 µM
[4] = molecular target: Activin receptor type-2A (Homo sapiens) (UniProt P27037); assay: Selectivity interaction (KinomeScan (DiscoverX)) EUB0000655a ACVR2A; details: at 10 µM
[5] = molecular target: T1, cGMP-dependent protein kinase 1 (Homo sapiens) (UniProt Q13976); details: at 10 µM
T1 sequence (whole entry): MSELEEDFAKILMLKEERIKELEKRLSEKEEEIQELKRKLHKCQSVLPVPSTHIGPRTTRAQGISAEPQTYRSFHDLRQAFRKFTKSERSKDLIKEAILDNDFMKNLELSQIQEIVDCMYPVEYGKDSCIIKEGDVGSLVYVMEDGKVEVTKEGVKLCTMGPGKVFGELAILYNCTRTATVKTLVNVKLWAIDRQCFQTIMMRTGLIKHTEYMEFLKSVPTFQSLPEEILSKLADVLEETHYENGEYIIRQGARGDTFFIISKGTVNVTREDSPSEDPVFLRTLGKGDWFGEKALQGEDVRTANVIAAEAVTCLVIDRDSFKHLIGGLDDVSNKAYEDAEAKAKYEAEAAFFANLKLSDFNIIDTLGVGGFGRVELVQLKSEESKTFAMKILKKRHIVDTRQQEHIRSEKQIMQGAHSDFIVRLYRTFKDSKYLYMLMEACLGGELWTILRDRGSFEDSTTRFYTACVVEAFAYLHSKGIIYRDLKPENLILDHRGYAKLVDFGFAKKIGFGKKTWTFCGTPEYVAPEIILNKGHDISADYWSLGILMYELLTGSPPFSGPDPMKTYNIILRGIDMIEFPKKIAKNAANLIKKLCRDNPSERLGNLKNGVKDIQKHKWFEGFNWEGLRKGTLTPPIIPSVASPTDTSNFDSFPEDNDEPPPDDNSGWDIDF

[6] = molecular target: Tyrosine-protein kinase BTK (Homo sapiens, UniProt Q06187); assay: Selectivity interaction (ActivX KiNativ screen (kinase selectivity in THP-1 cell lysates)) EUB0000639a BTK; assay type: subcellular; details: lysate, at 5 µM
[7] = molecular target: Casein kinase I isoform gamma-2 (Homo sapiens) (UniProt P78368); assay: Selectivity interaction (KinomeScan (DiscoverX)) EUB0000607a CSNK1G2; details: at 10 µM
[8] = molecular target: Macrophage-stimulating protein receptor (Homo sapiens, UniProt Q04912); assay: Selectivity interaction (KinomeScan (DiscoverX)) EUB0000695a MST1R; details: at 100 nM
[9] = molecular target: T2, Inhibitor of nuclear factor kappa-B kinase subunit alpha (Homo sapiens) (UniProt O15111); assay: Selectivity interaction (KinomeScan (DiscoverX)) EUB0000595a CHUK; details: at 10 µM
T2 sequence (whole entry): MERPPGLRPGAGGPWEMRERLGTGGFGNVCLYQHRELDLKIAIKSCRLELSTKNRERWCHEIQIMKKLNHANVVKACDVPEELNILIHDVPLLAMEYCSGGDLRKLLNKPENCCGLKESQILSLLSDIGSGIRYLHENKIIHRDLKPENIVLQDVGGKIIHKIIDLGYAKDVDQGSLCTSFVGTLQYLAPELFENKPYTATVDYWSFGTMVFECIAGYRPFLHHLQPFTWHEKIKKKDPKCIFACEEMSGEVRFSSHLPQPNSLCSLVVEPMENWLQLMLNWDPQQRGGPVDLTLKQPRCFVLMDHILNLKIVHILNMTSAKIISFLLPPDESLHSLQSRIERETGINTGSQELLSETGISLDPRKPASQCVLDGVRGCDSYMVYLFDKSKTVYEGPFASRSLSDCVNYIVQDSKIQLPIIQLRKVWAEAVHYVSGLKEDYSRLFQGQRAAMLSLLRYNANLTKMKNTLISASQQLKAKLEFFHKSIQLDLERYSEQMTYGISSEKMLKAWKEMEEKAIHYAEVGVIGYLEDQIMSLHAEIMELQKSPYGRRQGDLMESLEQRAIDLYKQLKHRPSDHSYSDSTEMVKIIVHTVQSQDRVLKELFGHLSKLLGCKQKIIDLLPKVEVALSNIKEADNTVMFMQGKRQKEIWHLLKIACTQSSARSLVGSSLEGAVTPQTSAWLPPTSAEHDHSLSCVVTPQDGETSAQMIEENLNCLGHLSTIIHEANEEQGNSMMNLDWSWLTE

[10] = molecular target: Dual specificity testis-specific protein kinase 1 (Homo sapiens) (UniProt Q15569); assay: Selectivity interaction (Ambit KINOMEscan and KiNATiv profiling in Jurkat cells) EUB0000090b TESK1; assay type: cell-based; details: at 1 µM
Chain of Dual specificity testis-specific protein kinase 1 (Homo sapiens) (Q15569 whole entry, looked up): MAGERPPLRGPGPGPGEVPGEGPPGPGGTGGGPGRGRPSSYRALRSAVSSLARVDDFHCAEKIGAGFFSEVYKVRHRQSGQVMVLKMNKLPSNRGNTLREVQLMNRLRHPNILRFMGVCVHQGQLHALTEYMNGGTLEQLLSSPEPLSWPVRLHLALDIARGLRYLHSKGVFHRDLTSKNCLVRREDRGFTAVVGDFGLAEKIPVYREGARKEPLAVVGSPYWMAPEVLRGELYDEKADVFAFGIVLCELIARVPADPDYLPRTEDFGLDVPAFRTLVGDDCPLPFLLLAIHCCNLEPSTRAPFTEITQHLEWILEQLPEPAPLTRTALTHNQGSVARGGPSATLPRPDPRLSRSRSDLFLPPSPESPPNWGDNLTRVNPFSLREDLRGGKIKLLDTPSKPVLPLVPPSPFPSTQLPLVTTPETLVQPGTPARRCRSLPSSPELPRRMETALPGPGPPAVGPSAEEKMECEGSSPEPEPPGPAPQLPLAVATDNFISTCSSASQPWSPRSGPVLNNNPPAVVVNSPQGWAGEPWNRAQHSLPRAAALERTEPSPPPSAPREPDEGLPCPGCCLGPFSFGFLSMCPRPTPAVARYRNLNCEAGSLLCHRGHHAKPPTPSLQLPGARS

Chain of Tyrosine-protein kinase BTK (Q06187 whole entry, canonical isoform): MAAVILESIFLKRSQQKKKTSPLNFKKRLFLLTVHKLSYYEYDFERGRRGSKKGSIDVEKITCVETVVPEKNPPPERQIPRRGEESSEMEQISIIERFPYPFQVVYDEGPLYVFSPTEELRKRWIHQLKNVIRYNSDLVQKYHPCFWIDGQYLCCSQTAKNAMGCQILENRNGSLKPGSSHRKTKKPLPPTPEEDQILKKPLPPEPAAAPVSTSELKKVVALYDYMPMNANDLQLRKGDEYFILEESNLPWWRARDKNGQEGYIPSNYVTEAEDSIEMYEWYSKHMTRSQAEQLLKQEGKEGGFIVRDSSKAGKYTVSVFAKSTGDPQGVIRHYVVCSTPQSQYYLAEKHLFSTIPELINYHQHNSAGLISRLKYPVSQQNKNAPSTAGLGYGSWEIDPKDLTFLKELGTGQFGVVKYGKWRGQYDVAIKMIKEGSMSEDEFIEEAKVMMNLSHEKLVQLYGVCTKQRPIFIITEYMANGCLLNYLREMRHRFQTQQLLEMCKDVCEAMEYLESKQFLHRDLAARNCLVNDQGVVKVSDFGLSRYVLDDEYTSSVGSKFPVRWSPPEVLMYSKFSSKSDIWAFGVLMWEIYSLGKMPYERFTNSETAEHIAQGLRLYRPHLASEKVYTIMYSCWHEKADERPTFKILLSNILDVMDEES
Chain of Calcium/calmodulin-dependent protein kinase type 1 (Homo sapiens) (Q14012 whole entry, looked up): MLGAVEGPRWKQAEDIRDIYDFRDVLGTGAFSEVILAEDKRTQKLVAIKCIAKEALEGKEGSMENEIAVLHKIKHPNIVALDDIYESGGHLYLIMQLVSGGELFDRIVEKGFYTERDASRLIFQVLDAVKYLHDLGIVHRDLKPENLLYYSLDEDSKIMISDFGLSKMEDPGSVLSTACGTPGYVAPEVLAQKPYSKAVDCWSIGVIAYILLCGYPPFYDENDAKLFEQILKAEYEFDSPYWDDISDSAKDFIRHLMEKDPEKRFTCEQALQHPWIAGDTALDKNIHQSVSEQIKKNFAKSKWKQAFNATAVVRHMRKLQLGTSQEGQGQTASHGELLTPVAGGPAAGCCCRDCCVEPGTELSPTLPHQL
Chain of Atypical kinase COQ8A, mitochondrial (Q8NI60 whole entry): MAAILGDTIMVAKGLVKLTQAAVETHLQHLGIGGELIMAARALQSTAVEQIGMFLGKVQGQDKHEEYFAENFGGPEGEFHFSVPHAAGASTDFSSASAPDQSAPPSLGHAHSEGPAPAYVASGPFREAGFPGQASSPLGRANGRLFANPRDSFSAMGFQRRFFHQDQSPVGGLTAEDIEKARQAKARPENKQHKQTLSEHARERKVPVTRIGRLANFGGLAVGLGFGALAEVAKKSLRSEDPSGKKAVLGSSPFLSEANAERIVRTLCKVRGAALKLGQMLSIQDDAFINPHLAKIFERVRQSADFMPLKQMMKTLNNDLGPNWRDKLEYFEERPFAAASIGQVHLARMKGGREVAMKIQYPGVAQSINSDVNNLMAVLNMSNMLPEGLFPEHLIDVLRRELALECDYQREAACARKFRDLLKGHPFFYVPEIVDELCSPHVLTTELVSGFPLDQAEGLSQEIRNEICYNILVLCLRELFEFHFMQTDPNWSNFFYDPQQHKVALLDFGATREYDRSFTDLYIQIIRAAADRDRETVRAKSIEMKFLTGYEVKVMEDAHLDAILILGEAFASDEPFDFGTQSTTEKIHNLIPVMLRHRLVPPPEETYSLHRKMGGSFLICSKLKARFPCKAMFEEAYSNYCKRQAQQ
Chain of Activin receptor type-2A (Homo sapiens) (P27037 whole entry): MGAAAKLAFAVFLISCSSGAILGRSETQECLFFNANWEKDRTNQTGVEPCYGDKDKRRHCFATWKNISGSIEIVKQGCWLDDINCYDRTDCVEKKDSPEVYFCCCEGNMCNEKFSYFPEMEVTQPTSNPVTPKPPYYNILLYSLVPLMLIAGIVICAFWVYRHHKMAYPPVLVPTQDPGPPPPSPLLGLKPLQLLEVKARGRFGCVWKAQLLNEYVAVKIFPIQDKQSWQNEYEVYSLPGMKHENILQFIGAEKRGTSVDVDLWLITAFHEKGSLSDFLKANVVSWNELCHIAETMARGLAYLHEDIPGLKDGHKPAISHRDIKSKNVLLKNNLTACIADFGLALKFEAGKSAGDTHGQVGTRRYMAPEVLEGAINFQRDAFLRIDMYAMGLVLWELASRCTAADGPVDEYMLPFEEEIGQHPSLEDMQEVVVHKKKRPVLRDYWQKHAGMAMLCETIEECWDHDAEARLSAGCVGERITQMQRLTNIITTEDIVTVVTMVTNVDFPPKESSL
Chain of Macrophage-stimulating protein receptor (Q04912 25-304 limits assumed): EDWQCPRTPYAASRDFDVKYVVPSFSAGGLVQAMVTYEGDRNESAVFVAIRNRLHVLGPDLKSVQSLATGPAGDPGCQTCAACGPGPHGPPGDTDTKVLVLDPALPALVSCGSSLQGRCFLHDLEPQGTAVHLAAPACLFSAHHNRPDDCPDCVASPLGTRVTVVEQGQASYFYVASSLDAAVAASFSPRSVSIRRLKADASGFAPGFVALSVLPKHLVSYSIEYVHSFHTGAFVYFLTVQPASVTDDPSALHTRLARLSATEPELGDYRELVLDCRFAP
Chain of Macrophage-stimulating protein receptor (Q04912 310-1400 limits assumed): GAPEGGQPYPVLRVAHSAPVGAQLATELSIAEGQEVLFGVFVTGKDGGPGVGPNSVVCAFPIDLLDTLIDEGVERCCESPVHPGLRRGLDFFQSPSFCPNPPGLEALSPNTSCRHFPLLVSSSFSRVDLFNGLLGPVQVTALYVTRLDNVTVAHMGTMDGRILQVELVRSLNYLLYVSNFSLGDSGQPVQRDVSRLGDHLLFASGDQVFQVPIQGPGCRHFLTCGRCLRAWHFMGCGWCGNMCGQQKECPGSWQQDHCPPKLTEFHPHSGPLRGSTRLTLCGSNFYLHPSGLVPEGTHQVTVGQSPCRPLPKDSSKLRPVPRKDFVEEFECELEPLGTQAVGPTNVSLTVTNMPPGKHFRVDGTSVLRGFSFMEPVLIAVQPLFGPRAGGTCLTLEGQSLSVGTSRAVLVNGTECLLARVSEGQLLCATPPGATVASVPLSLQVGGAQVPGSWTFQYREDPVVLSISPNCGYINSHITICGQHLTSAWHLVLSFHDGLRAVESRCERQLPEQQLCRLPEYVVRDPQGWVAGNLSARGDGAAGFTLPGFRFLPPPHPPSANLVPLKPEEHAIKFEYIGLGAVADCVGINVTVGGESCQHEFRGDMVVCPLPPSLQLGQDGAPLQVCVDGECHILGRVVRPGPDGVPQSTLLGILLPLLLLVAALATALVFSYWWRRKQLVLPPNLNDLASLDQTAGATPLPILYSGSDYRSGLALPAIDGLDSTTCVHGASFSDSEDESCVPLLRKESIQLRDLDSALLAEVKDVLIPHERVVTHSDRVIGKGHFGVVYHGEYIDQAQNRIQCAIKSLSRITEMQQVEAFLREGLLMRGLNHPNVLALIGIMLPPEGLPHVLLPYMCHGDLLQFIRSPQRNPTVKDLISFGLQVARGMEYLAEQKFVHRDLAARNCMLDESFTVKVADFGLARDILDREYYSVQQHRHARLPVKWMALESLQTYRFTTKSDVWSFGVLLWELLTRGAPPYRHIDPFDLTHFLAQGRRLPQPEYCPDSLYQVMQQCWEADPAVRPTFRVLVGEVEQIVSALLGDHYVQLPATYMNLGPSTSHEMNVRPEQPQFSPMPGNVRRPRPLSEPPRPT
Chain of Mitogen-activated protein kinase 1 (P28482 whole entry): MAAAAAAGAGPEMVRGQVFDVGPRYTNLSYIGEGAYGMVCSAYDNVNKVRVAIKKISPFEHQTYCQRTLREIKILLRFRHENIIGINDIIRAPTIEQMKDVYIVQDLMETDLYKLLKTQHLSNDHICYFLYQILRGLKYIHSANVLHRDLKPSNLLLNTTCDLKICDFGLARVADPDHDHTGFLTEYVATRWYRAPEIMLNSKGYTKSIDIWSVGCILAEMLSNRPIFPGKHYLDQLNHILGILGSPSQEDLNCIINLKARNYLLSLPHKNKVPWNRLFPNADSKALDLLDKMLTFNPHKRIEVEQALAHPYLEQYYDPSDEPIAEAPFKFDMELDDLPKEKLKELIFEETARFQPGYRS
Chain of Casein kinase I isoform gamma-2 (Homo sapiens) (P78368 whole entry, looked up, canonical isoform): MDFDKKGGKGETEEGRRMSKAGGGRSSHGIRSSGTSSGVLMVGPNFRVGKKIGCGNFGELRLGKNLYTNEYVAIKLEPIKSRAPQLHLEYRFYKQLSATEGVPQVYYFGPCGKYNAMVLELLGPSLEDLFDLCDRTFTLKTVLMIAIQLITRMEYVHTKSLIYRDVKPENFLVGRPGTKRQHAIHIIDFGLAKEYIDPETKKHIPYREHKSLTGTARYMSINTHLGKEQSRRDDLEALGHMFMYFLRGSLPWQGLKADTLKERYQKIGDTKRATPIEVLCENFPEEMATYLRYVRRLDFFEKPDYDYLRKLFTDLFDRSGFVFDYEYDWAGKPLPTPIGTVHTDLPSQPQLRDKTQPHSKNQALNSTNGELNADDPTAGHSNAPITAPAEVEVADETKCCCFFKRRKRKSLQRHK

COc1cc(N(C)c2ccnc3ccc(C(F)(F)F)cc23)cc(OC)c1OC
Kd [1]: > 10 µM | % binding [2]: 59% | % binding [3]: 97%

CN(C)CCOc1ccc(-c2nc(-c3ccncc3)c(-c3ccc4c(c3)CC/C4=N\O)[nH]2)cc1
% of control [4]: 100%

Cc1cc([C@@H](C)Nc2ccccc2C(=O)O)c2nc(N3CCOCC3)cc(=O)n2c1 [AZD-6482]
% of control [5]: 100%

CC[C@@H]1[C@H](F)C(=O)N[C@@H]1COc1nccc2cc(C(N)=O)c(OC)cc12 [ZIMLOVISERTIB]
% of inhibition [6]: -7%

CNC(=O)Nc1ccc(-c2nc(N3CC4CCC(C3)O4)c3cnn(C4CCC5(CC4)OCCO5)c3n2)cc1
% of control [7]: 95%

Cc1cc(F)c(C(=O)Nc2cccc(-c3nncn3C(C)C)n2)cc1-n1cnc(C2CC2)c1
% of control [8]: 100%

COCC(=O)NC/C=C/c1ccc2ncnc(Nc3ccc(Oc4ccc(C)nc4)c(C)c3)c2c1 [CP-724714]
% of control [9]: 100%

CN(C)C/C=C/C(=O)Nc1ccc(C(=O)N2CCCC(Nc3ncc(Cl)c(-c4c[nH]c5ccccc45)n3)C2)cc1 (stereo not given)
% of control [10]: 86%
